Read-outs that look alike come from different tables or passages of the source.

For orientation: EC50 means the midpoint of the concentration-response curve. Broadly, the logP is the decadic logarithm of the partition coefficient of the neutral form, usually between octanol and water.

Data set [1] concerns CHIKV Indian Ocean strain 899. Put plainly: Anti-CHIKV CPE assay on Vero cells. The following applies: for EC50: Chikungunya virus, Vero; for SI: ratio of CC50 to EC50.
Data set [2] in a line: Lipophilicity by shake-flask method.
Data set [3] is described as follows: Cytotoxicity assay (metabolic activity of compound-treated cells). The following applies: African green monkey.
Data set [4] relates to CHIKV. As to conditions: cited from earlier work.
Data set [5] deals with CHIKV. More on the design: method as in PMID 23275491. The following applies: CHIKV inhibition; cited from earlier work.
Another data set deals with CHIKV isolate. The following applies: CHIKV isolate replication; cited from earlier work.
The conditions of data set [6]: cited from earlier work.

Take `O=c1oc2cc(OS(=O)(=O)c3ccccc3)ccc2cc1CSc1nc2ccccc2c(=O)[nH]1` [Compound 10a, 2′-Oxo-3′-([(4-oxo-3,4-dihydroquinazolin-2-yl)thio]methyl)-2H-chromen-7′-yl Benzenesulfonate]: in data set [1], the concentration giving a half-maximal response (EC50) was determined as 7.84 µM and the SI is 5.11. For the same molecule, the logP in data set [2] was determined as 3.52. The molecule also displayed a CC50 in data set [3] of 40.1 µM.

With `O=c1oc2cc(OS(=O)(=O)c3ccccc3[N+](=O)[O-])ccc2cc1CSc1nc2ccccc2c(=O)[nH]1` [Compound 10e, 2′-Oxo-3′-([(4-oxo-3,4-dihydroquinazolin-2-yl)thio]methyl)-2H-chromen-7′-yl 2″-Nitrobenzenesulfonate], in data set [1], the concentration for a half-maximal effect (EC50) came out at 12.7 µM and the SI is listed as 5.06. Also, the log partition coefficient (logP) in data set [2] is 3.48. In addition, the CC50 in data set [3] turned out to be 64.3 µM.

Consider `O=C(NN=Cc1ccccc1)C1CC1` [benzylidene(cyclopropane)carbohydrazide], for which the half-maximal effective concentration (EC50) with CHIKV [4] (CHIKV-induced CPE) is 5 µM. The SI in the data set with CHIKV [4] is listed as 14.

In the case of `O=c1oc2cc(OS(=O)(=O)c3ccc(Br)cc3)ccc2cc1CSc1nc2ccccc2c(=O)[nH]1` [Compound 10d, 2′-Oxo-3′-([(4-oxo-3,4-dihydroquinazolin-2-yl)thio]methyl)-2H-chromen-7′-yl 4″-Bromobenzenesulfonate], in data set [1], the EC50 worked out at 18.4 µM and the SI came to 3.40. In data set [2], this molecule had a logP of 3.94. In data set [3], this molecule gave a CC50 of 62.6 µM.

As for `O=c1oc2cc(OS(=O)(=O)c3ccccc3)ccc2cc1CSc1nc(Nc2ccccc2)c2ccccc2n1` [Compound 2b, 2′-Oxo-3′-[([4-(phenylamino)quinazolin-2-yl]thio)methyl]-2H-chromen-7′-yl Benzenesulfonate], in data set [1], the 50% effective concentration (EC50) stood at 3.84 µM and the SI was 18.8. Also, the “fold more potent than quinazolinone conjugate 10a” value in data set [1] (EC50 comparison 2b vs 10a) is 2.0 times. Further, in data set [1] (SI comparison 2b vs 10a), the “fold improvement of SI in comparison with 10a” value was determined as 3.68 times. This molecule showed a log partition coefficient (logP) in data set [2] of 5.27. The same molecule registered a CC50 in data set [3] of 72.3 µM.

Turning to `COC(=O)C[C@](O)(CCC(C)(C)O)C(=O)O[C@@H]1C(OC)=C[C@]23CCCN2CCc2cc4c(cc2[C@H]13)OCO4` [Harringtonine, harringtonine], in the data set with CHIKV [5], the 50% effective concentration (EC50) is 0.24 µM.

Take `Cc1ccc(C(=O)Nc2ccc(S(=O)(=O)O)c3cc(S(=O)(=O)O)cc(S(=O)(=O)O)c23)cc1NC(=O)c1cccc(NC(=O)Nc2cccc(C(=O)Nc3cc(C(=O)Nc4ccc(S(=O)(=O)O)c5cc(S(=O)(=O)O)cc(S(=O)(=O)O)c45)ccc3C)c2)c1` [Suramin]: in the data set on CHIKV isolate, the EC50 is roughly 80 µM. Moreover, the CC50 in data set [6] is greater than 5000 µM.

Turning to `O=c1oc2cc(OS(=O)(=O)c3ccc([N+](=O)[O-])cc3)ccc2cc1CSc1nc2ccccc2c(=O)[nH]1` [Compound 10f, 2′-Oxo-3′-([(4-oxo-3,4-dihydroquinazolin-2-yl)thio]methyl)-2H-chromen-7′-yl 4″-Nitrobenzenesulfonate], in data set [1], the EC50 was greater than 186 µM. In addition, in data set [2], the logP was found to be 3.43.

Take `O=c1oc2cc(OS(=O)(=O)c3ccc(F)cc3)ccc2cc1CSc1nc2ccccc2c(=O)[nH]1` [Compound 10c, 2′-Oxo-3′-([(4-oxo-3,4-dihydroquinazolin-2-yl)thio]methyl)-2H-chromen-7′-yl 4″-Fluorobenzenesulfonate]: in data set [1], the concentration for a half-maximal effect (EC50) was 6.46 µM and the SI amounted to 9.24. For the same molecule, the “fold more potent against CHIKV than β-substituted isomer 11” value in data set [1] (EC50 comparison 10c vs 11) is ~ 3 times. Moreover, the “fold improvement of SI in comparison with β-11” value in data set [1] (SI comparison 10c vs 11) was 5.7 times. The logP in data set [2] stood at 3.68. Moreover, the CC50 in data set [3] was 59.7 µM.

In data set [1], `COc1ccc(S(=O)(=O)Oc2ccc3cc(CSc4nc5ccccc5c(=O)[nH]4)c(=O)oc3c2)cc1` [Compound 10b, 2′-Oxo-3′-([(4-oxo-3,4-dihydroquinazolin-2-yl)thio]methyl)-2H-chromen-7′-yl 4″-Methoxybenzenesulfonate] returned an EC50 greater than 186 µM. Moreover, the logP in data set [2] was found to be 3.45.
